Results from paper PMC3996151, “Safety and pharmacological characterization of the molecular tweezer CLR01 – a broad-spectrum inhibitor of amyloid proteins’ toxicity” (BMC Pharmacology & Toxicology, 2014).

Key:
[1] = set-up: method as in PMID 23183235; conditions: 3H-CLR01 IV, 12-m old WT and 3×Tg AD mice; cited from earlier work
[2] = In vitro dephosphorylation by brain homogenate (inorganic phosphate release); format: in vitro ADME, mouse; conditions: 50 nmol CLR01, 1.5 mg mouse-brain homogenate, 60 min at 60°C
Protocol: Potential dephosphorylation of CLR01 was analyzed by incubating 100 nmol CLR01 with 0.08 units of alkaline phosphatase (ALP; calf intestinal alkaline phosphatase, Promega, Madison, Wisconsin) for 60 min at 60°C. One enzymatic unit is defined as the amount of enzyme required for catalyzing the hydrolysis of 1 μmol of p-nitrophenylphosphate per minute. p-Nitrophenylphosphate disodium salt at 5–50 nmol (Fisher, Waltham, Massachusetts) was used for generation of a standard curve. The amount of inorganic phosphate generated was measured spectrophotometrically using an EnzChek Phosphate Assay kit (Life Technologies, Carlsbad, California) according to the manufacturer’s instructions on a DU-640 spectrophotometer (Beckman Coulter, Brea, California) at λ = 360 nm. Baseline values were subtracted from readings and compared to the standard curve resulting from serial ALP reactions to calculate the amount of inorganic phosphate. Similarly, potential dephosphorylation of CLR01 by brain homogenates was measured. For these experiments, one brain hemisphere was homogenized by sonication in the presence of cOmplete protease-inhibitor cocktail (Roche, Penzberg, Germany). Protein concentration was measured using a BCA Protein Assay Kit (Pierce, Rockford, Illinois). […]

[3] = target: T1, porcine brain tubulin (Sus scrofa, UniProt P02550+P02554); experiment: Inhibition of tubulin polymerization (turbidity, absorbance at 340 nm); format: biochemical
T1 construct: porcine brain tubulin; purchased Cytoskeleton, Inc., Denver, Colorado; host or cells: porcine brain (tissue-purified)
Protocol: The effect of CLR01 on tubulin polymerization was analyzed using a commercial kit (Cytoskeleton, Inc., Denver, Colorado). Three mg/ml porcine brain tubulin (~18 μM) were allowed to polymerize at 37 °C in the absence or presence of CLR01 concentrations ranging from 10–1,000 μM. The turbidity of the solution was measured as absorbance at λ = 340 nm using a Synergy HT microplate reader (BioTek, Winooski, VT). The data are an average of three independent experiments with two wells per condition.
As stated above, the mechanism by which CLR01 remodels the assembly of amyloidogenic proteins into non-toxic assemblies that can be degraded by normal clearance mechanisms is by its specific binding to Lys residues. The mechanism is “process-specific” because it is postulated to affect only the aberrant assembly of proteins that leads to toxic oligomers and aggregates, but not normal protein structure, function, or assembly as happens, e.g., in tubulin polymerization. To test whether this indeed is the case, we examined the effect of CLR01 on tubulin polymerization. Three mg/ml (~18 μM) porcine brain tubulin, which contains 3.8% Lys and 4.8% Arg, was allowed to polymerize in the absence or presence of CLR01 concentrations ranging from 10–1,000 μM.

[4] = system: α-synuclein (α-syn); set-up: method as in PMID 22373667; conditions: up to 10 μM in the water environment; cited from earlier work

T1 sequence (P02550 whole entry): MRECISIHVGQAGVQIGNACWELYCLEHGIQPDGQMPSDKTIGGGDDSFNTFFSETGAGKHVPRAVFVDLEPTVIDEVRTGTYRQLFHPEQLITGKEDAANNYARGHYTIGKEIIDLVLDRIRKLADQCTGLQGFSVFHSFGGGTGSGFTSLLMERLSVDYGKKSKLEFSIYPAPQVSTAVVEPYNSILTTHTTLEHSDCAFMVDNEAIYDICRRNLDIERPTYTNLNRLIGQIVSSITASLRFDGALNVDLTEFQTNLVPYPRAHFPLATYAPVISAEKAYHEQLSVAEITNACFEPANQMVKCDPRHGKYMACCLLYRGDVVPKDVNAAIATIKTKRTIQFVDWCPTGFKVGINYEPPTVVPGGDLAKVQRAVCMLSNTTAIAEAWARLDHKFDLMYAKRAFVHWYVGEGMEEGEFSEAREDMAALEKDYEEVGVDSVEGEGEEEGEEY
T1 sequence (P02554 whole entry): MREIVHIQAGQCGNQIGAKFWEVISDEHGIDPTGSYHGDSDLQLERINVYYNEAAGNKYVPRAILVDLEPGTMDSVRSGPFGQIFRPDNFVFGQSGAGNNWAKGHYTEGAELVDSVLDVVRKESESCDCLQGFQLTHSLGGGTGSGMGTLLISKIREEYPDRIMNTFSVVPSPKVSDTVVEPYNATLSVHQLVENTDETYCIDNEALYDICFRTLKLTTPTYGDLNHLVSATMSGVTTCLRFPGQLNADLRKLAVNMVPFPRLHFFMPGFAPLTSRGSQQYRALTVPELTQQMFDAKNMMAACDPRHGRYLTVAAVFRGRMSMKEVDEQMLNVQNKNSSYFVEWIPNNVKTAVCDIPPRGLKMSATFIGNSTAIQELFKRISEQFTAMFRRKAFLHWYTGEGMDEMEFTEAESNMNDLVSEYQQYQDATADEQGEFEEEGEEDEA

Which results are given for O=P(O)(O)Oc1c2c(c(OP(=O)(O)O)c3c1C1CC3c3cc4c(cc31)C1CC4c3ccccc31)C1CC2c2cc3c(cc21)C1CC3c2ccccc21 [CLR01]?
Radioactivity levels in the brain, % of blood levels [1]: ~ 2%; Inorganic phosphate released on incubation with brain homogenate [2]: no release of inorganic phosphate was detected; Concentration ratio for disruption of tubulin polymerization relative to ratios needed for inhibition of aggregation of amyloidogenic proteins [3]: 20–50 times higher; Absorbance observed immediately (λ = 340 nm) ([3]; 1,000 μM CLR01, 0.05-0.09 without or with up to 300 μM): 0.15 absorbance units; Concentrations that did not significantly affect the polymerization of tubulin ([3]; 3 mg/ml (~18 μM) tubulin, 37 °C): up to 300 μM; Concentration at which significant modulation of tubulin polymerization was observed ([3]; 3 mg/ml (~18 μM) tubulin, 37 °C, CLR01 tested at 10–1,000 μM): 1,000 μM; Effect in zebrafish model of α-syn toxicity [4]: prevented deformation and mortality
